Results on five compounds are retold here after ChEMBL document CHEMBL1201862, “PubChem BioAssay data set” (2004).

The source made the active and inactive calls.

Format in all cases: functional
Test [1] can be described thus: growth suppression of PTEN-null colon cells, dose response, cell-based, HCT116 PTEN knockout (AID 1047).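 Further: HCT116 colon tumor cells with PTEN knocked out; cells exposed to compound for 60 hours before readout; potency for loss of cell viability measured by luminescence.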
The nature of test [2]: growth suppression of beta-catenin-knockout colon cells, dose response, cell-based, HCT116, human colon tumor (AID 1045).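 Further: HCT116 colon tumor cells with beta catenin knocked out; cells exposed to compound for 60 hours.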
In the next test the target is T1, Caspase-3 (Homo sapiens, UniProt P42574).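 Further: Dose-response selectivity test against caspase-3 for candidate inhibitors of sentrin-specific proteases (SENPs).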
T1 sequence (P42574 whole entry): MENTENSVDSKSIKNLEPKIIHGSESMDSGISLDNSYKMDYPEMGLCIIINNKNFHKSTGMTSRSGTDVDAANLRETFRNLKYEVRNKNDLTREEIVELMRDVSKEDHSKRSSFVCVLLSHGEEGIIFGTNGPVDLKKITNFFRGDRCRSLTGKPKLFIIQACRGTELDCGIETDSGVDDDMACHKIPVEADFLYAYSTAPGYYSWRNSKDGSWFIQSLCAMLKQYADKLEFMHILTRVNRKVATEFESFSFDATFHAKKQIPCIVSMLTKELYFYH

For test [3], the target named is T2, Sentrin-specific protease 7 (Homo sapiens, UniProt Q9BQF6).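 Further: Luminescence-based dose-response confirmation of ultra-high-throughput screening hits, measuring inhibition of SENP7.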
T2 sequence (Q9BQF6 whole entry): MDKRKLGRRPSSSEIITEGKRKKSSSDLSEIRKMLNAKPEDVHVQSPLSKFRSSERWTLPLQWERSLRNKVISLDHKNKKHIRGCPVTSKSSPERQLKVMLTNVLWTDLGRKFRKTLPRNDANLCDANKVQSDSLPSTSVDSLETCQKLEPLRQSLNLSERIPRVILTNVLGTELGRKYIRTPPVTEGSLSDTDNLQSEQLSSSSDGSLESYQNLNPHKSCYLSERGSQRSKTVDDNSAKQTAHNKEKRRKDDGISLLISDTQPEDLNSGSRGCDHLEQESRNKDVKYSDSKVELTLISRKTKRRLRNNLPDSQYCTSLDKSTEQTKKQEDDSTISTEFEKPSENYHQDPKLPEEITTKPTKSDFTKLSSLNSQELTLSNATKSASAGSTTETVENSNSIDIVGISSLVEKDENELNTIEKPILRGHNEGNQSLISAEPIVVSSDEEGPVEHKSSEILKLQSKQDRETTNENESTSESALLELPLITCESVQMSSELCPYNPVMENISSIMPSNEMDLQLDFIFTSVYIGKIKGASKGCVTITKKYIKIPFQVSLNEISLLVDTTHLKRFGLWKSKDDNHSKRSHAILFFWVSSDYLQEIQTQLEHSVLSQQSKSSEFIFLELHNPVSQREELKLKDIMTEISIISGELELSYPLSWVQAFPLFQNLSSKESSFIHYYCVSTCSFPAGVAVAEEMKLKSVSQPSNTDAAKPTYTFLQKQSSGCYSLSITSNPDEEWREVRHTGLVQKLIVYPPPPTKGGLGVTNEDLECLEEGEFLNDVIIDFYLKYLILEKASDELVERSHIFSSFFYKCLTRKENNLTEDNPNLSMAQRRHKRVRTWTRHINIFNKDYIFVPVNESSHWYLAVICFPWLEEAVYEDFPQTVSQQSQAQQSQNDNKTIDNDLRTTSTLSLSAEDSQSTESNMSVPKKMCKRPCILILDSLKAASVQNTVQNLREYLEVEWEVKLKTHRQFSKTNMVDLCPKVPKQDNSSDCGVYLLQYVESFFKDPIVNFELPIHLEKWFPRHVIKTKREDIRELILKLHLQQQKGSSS

Test [4] has as its target T3, Sentrin-specific protease 6 (Homo sapiens, UniProt Q9GZR1).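 Further: Luminescence-based dose-response confirmatory assay of SENP6 inhibition, following up an ultra-high-throughput screen.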
T3 sequence (Q9GZR1 whole entry): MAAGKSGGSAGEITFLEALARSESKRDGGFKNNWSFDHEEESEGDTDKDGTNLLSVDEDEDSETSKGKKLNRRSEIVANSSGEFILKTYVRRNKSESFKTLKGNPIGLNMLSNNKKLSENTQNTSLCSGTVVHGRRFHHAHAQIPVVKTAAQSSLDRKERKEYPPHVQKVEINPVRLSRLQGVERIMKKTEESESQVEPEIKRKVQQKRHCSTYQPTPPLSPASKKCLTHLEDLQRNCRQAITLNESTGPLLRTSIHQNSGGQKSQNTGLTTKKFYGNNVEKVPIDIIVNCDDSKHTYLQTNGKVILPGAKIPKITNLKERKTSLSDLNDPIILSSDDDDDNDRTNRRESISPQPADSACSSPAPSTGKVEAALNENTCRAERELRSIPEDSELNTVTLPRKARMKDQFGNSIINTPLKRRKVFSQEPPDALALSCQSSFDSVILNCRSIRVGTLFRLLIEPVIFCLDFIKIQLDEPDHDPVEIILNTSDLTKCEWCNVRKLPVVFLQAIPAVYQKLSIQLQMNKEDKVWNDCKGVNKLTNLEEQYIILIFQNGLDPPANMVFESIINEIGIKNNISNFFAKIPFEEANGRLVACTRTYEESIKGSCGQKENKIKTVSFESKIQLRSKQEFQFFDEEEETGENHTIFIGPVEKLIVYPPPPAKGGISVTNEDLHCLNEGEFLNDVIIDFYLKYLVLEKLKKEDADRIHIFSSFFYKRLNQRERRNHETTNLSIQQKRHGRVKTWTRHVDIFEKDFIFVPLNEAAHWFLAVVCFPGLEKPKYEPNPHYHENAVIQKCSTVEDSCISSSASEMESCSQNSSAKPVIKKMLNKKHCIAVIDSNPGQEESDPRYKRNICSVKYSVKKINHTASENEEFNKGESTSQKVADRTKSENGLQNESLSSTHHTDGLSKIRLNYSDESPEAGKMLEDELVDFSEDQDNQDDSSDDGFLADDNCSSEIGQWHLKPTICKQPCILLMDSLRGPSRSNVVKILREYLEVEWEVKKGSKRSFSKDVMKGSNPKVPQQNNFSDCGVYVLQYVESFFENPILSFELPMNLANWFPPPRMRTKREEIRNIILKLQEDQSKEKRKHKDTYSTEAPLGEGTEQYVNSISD

Test [5] deals with T4, Sentrin-specific protease 8 (Homo sapiens, UniProt Q96LD8).
T4 sequence (Q96LD8 whole entry): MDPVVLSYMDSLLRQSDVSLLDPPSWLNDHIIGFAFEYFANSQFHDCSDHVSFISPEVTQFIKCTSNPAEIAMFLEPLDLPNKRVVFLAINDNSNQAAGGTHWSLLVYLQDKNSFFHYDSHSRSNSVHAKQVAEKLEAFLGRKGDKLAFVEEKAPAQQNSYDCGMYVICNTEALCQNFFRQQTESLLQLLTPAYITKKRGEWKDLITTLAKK

In a further test the target is T5, Protein skinhead-1 (Caenorhabditis elegans, UniProt P34707).
T5 sequence (P34707 whole entry): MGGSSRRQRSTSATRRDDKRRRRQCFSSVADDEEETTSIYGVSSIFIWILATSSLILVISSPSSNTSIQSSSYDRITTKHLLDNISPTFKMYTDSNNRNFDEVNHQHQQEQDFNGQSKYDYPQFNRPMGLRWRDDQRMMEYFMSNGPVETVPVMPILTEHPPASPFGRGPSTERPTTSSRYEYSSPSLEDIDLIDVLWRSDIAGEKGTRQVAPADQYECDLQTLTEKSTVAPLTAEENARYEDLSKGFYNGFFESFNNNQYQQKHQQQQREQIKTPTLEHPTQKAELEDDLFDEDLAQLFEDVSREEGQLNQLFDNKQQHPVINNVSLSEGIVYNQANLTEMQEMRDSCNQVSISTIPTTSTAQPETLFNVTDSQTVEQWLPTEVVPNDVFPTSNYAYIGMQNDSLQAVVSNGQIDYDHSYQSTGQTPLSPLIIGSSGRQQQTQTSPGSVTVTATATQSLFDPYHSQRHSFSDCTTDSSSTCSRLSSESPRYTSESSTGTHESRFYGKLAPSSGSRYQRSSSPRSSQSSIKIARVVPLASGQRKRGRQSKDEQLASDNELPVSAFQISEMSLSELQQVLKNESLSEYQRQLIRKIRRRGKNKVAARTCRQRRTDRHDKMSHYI

The target of test [6] is T6, Replicative DNA helicase DnaB (Mycobacterium tuberculosis, UniProt P9WMR3).
T6 sequence (P9WMR3 whole entry): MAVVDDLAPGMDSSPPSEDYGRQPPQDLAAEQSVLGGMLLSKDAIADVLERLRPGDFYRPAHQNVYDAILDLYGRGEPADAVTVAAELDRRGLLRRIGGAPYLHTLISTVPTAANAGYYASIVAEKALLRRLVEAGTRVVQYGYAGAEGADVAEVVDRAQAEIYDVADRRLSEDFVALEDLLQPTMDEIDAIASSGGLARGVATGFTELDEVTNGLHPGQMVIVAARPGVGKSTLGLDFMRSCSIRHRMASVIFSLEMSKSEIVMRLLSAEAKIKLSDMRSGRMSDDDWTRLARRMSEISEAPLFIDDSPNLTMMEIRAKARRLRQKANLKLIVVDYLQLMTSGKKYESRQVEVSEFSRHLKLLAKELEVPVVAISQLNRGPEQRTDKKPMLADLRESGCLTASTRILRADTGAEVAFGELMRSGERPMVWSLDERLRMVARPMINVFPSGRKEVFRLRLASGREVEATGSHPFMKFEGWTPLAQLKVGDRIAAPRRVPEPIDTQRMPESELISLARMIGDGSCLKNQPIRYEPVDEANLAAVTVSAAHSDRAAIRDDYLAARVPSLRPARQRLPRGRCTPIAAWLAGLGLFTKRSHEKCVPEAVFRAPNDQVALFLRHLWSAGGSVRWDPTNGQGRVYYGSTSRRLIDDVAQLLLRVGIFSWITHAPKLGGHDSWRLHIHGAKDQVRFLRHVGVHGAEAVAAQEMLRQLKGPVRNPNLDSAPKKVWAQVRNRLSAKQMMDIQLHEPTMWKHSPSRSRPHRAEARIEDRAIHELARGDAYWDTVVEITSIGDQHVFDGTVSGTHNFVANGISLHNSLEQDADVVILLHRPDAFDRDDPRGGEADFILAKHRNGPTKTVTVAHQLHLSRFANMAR
Nature of the test: DnaB intein splicing inhibitors, dose response, biochemical, cell-free fluorescence (AID 449749).

The target of the next test is T7, Protein RecA (Mycobacterium tuberculosis, UniProt P9WHJ3).
T7 sequence (P9WHJ3 whole entry): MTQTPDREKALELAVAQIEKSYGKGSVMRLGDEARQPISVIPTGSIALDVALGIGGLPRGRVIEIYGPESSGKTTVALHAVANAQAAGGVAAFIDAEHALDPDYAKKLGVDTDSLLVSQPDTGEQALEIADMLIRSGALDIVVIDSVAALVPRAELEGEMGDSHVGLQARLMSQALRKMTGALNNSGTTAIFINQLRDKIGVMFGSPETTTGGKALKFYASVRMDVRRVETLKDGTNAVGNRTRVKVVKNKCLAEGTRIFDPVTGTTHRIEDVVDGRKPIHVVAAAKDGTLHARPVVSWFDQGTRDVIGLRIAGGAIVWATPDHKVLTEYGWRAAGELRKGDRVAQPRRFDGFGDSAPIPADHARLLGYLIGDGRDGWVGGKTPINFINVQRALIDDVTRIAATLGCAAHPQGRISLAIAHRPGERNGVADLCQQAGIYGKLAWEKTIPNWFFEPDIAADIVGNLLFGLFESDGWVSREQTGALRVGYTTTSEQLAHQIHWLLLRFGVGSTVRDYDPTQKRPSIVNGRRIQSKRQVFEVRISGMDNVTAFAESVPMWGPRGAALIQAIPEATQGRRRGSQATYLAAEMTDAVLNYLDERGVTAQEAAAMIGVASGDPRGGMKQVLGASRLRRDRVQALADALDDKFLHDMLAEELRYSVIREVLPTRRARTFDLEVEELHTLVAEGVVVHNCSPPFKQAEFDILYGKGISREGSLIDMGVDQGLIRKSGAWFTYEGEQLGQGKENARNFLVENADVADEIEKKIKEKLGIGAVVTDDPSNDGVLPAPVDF
The test can be described thus: Fluorescence Cell-Free Homogeneous Dose Retest to Identify Inhibitors of RecA-Intein Splicing Activity. [Related pubchem assays (depositor defined):AID2097, AID2223, AID489010, AID492950].

Turning to `CC(C)=CC(=O)Nc1nnc(-c2ccc(F)cc2)s1`, the 50% effective concentration (EC50) was 18.2 µM (active) in test [1] and 13.8 µM (active) in test [2].

For `Clc1ccsc1-c1csc(-c2cccnc2)n1`, the IC50 at Caspase-3 was 19.4 µM (active); in test [3] it was 6.3 µM (active); in test [4], 11.3 µM (active); in test [5] it was 22.6 µM (active); at Protein skinhead-1 it was > 100 µM (inactive).

Take `COC(=O)c1ccc(-c2csc(NC(=O)c3ccc(S(=O)(=O)N4CCc5ccccc5C4)cc3)n2)cc1`: the values for the EC50 in test [1] and in test [2] were 10.3 µM (active) and 10.2 µM (active), respectively.

Take `COc1cc2c(cc1OC)CN(c1nc(CN3CCOCC3)nc3sc4c(c13)CCCC4)CC2`: the EC50 is 4.64 µM (active) in test [1] and 6.69 µM (active) in [2].

`COc1ccc(-c2cc(C(=O)n3cnc4ccccc43)c3ccccc3n2)cc1`: the AC50 in test [6] was > 380 µM (inactive). Also, at Protein RecA, the EC50 is 3.72 µM (active). At Protein skinhead-1, the IC50 is > 100 µM (inactive).
